The numbers were not newly measured in patent publication US20220202698A1, “EXTENDED RELEASE PHARMACEUTICAL COMPOSITIONS OF RIOCIGUAT” (Jubilant Pharma Holdings Inc., priority 2020, published 2022), which cites them from elsewhere.

SMILES strings stand for the structures.

For data set [1] the following is noted: human, in vivo.
The conditions of data set [2]: BCS classification.

With `COC(=O)N(C)c1c(N)nc(-c2nn(Cc3ccccc3F)c3ncccc23)nc1N` [Riociguat, methyl 4,6-diamino-2-[1-(2-fluorobenzyl)-1H-pyrazolo[3,4-b]pyridin-3-yl]-5-pyrimidinyl(methyl)carbamate], the Elimination half-life entry in data set [1] is “about 12 hours”. The Solubility entry in data set [2] is recorded as “low solubility”.
